The results in this text go back to US20240366594A1, “Small Molecule Inhibitors of Formation of Neutrophil-Derived Extracellular Traps (NETosis) and Uses Thereof” (The Brigham and Women's Hospital, Inc., priority 2021, published 2024).

Structures are written as SMILES.

One test concerns Murine neutrophils. Description: ROS production (luminol-HRP luminescence) in murine neutrophils. To be noted: ricolinostat 10 μM, 1 μM PMA 3 h; FIG. 1G right. It counts as cell-based, mouse. As for the experimental part: FIGS. 1A-H. Class I/II HDACs drive NET formation • (A and B) Freshly purified human (A) or mouse (B) neutrophils were treated with the indicated HDAC inhibitors at different doses (10, 2, 0.4, 0.08 μM), or with GSK484 (10 μM), for 1 h and then stimulated with 1 μM PMA for 3 h. Cells were fixed and stained with anti-citrullinated histone H3 (CitH3) antibody. NETosis induction was measured as the level of anti-CitH3 fluorescent signal. PMA alone represents 100% of NET induction. “-”: Cells treated with the highest dose of the indicated drug but not activated with PMA. • (C and D) Human neutrophils were treated, or not, with ricolinostat or GSK484 and then stimulated with 1 μM PMA. NETosis induction was measured as area of nuclei stained with DAPI. (C) 3D reconstruction of nuclei in each treatment (grid size 7.8 μm). (D) Quantification of DAPI signal from multiple fields of view (D) (n=9 for unstimulated, not pretreated with any drug [NT] and ricolinostat, n=7 for GSK484). • (E and F) Human neutrophils were treated as in (C-D), and immunoblot analysis of the indicated proteins was performed. Relative quantification of band intensity was analyzed with ImageJ software (F). White violins plots depict the quantification of histone H3 acetylation; red violin plots depict the quantification of histone H3 citrullination. […] ROS production was measured by luminescence with luminol-HRP. […]

Test [1] relates to neutrophils that lack HDAC6. Put plainly: NET induction in PMA-stimulated neutrophils from HDAC6KO mice. It counts as cell-based, mouse. The conditions noted are these: ricolinostat 10, 2, 0.4, 0.08 μM, then PMA; FIG. 5G. As for the experimental part: FIGS. 5A-J. Class I/II HDACs drive NET formation. • A) Quantification of extracellular DNA released by neutrophils treated, or not, with 1 μM GSK484 for 1 h and then stimulated with 1 μM PMA for 4 hours. Unstimulated, neutrophils not treated with drugs were used as a control. • B) Freshly purified human neutrophils were treated with the indicated HDAC inhibitors at different doses (0.08, 0.4, 2 and 10 μM) for 1 hour. Extracellular DNA release was assessed in the supernatant 3 hours after PMA stimulation. The dotted line represents the amount of DNA released from neutrophils treated with PMA alone. […] NETosis induction was measured as level of anti-CitH3 fluorescent signal. […] NET induction was measured as in (C). […] NETosis induction was measured as level of anti-CitH3 fluorescent signal. […] NET induction was measured as in (F). • H, I) Freshly isolated neutrophils from two different donors were treated with different doses of ricolinostat, citarinostat (10, 2, 0.4, 0.08 μM) or GSK484 (10, 5, 2 μM) for 1 h and then stimulated with 1 μM PMA. NET induction was measured as level of anti-CitH3 fluorescent signal (H) and by microscopy as number of cells positive for CitH3 signal per field of view (FOV) (I). […] NET induction was measured as level of anti-CitH3 fluorescent signal. […] Statistics were calculated using One-way ANOVA (A, E, I) and Two-way ANOVA (B, F, G, H, L). […]

With `O=C(CCCCCCNC(=O)c1cnc(N(c2ccccc2)c2ccccc2)nc1)NO` [ricolinostat], the “reactive oxygen species (ROS) production” value in the test on Murine neutrophils is “did not alter”. Further, the “NET induction in HDAC6-lacking neutrophils” value in test [1] is “remained sensitive”.
